Measurements from ChEMBL document CHEMBL3045896, “Synthesis of novel porphyrin-based lipids and their antibacterial activity” (2011).

Columns and labels:
Format in all cases: functional
Conditions in all cases: read-out: DIZ
[1] = system: Bacillus subtilis; test: Antibacterial activity against Bacillus subtilis MTCC 619 at 75 ug/ml after overnight incubation by disk diffusion method
[2] = system: Klebsiella pneumoniae; test: Antibacterial activity against Klebsiella pneumoniae MTCC 109 at 75 ug/ml after overnight incubation by disk diffusion method
[3] = system: Proteus vulgaris; test: Antibacterial activity against Proteus vulgaris MTCC 1771 at 75 ug/ml after overnight incubation by disk diffusion method
[4] = system: Staphylococcus aureus; test: Antibacterial activity against Staphylococcus aureus MTCC 96 at 75 ug/ml after overnight incubation by disk diffusion method
[5] = system: Escherichia coli; test: Antibacterial activity against Escherichia coli MTCC 722 at 75 ug/ml after overnight incubation by disk diffusion method
[6] = system: Bacillus subtilis; test: Antibacterial activity against Bacillus subtilis MTCC 619 at 30 ug/ml after overnight incubation by disk diffusion method
[7] = system: Klebsiella pneumoniae; test: Antibacterial activity against Klebsiella pneumoniae MTCC 109 at 30 ug/ml after overnight incubation by disk diffusion method
[8] = system: Staphylococcus aureus; test: Antibacterial activity against Staphylococcus aureus MTCC 96 at 30 ug/ml after overnight incubation by disk diffusion method
[9] = system: Proteus vulgaris; test: Antibacterial activity against Proteus vulgaris MTCC 1771 at 30 ug/ml after overnight incubation by disk diffusion method
[10] = system: Escherichia coli; test: Antibacterial activity against Escherichia coli MTCC 722 at 30 ug/ml after overnight incubation by disk diffusion method

Work on `CCCCCCCCCCCCCCCCN(CCCCCCCCCCCCCCCC)Cc1c2nc(cc3ccc(cc4nc(cc5ccc1[nH]5)C=C4)[nH]3)C=C2` yielded a zone of inhibition at 75 µg/mL [1] of 16 mm, a zone of inhibition at 75 µg/mL [2] of 12 mm and a zone of inhibition at 75 µg/mL [3] of 14 mm. It also gave a zone of inhibition at 75 µg/mL [4] of 15 mm and a zone of inhibition at 75 µg/mL [5] of 14 mm.

In the case of `CCCCCCCCCCCCCCCCC/C1=c2\cc/c([nH]2)=C(\CCCCCCCCCCCCCCCCC)C2=N/C(=C\C3=NC(=CC3)/C=C3/C=CC1=N3)C=C2`, the zone of inhibition at 75 µg/mL [1] is reported as 14 mm, the zone of inhibition at 75 µg/mL [2] is reported as 10 mm and the zone of inhibition at 75 µg/mL [3] is reported as 12 mm. The zone of inhibition at 75 µg/mL [4] was 13 mm and the zone of inhibition at 75 µg/mL [5] was 13 mm.

`O=C(N[C@H](CO)[C@H](O)c1ccc([N+](=O)[O-])cc1)C(Cl)Cl` [CHLORAMPHENICOL] gave a zone of inhibition at 30 µg/mL [6] of 23 mm, a zone of inhibition at 30 µg/mL [7] of 24 mm and a zone of inhibition at 30 µg/mL [8] of 23 mm. It also gave a zone of inhibition at 30 µg/mL [9] of 14 mm and a zone of inhibition at 30 µg/mL [10] of 31 mm.
